Read-outs that look alike come from different tables or passages of the source. Each block holds one molecule with its values, some of them ahead of it.
How the values were obtained:
[1] = test system: FFAR1 Y91A and N244A mutants; test: Ca2+ influx assay, FFAR1 point mutants in transfected HEK293T cells; type: cell-based
Method: (§1) FLAG-tagged FFAR1 was constructed using a two-step procedure. Initially, untagged FFAR1-pcDNA3.1 was amplified using the forward primer ([…]) and the reverse primer ([…]) to insert a FLAG epitope at the N terminus of the receptor. Following this, the polymerase chain reaction (PCR) product was purified and ligated into a pcDNA3.1 vector. Mutations were made using the QuikChange Site-Directed Mutagenesis Kit (Stratagene) and verified by sequencing.
(§2) For stable CHO cell lines, cells were seeded in black-walled clear-bottomed 96-well cell culture plates (Costar) and incubated overnight in 5% CO2 at 37°C. Otherwise, HEK293T cells were transiently transfected with expression plasmids using Trans-IT (Mirus) or Lipofectamine 2000, followed by plating in poly-D-lysine-coated black clear 96-well plates (BD Falcon) and incubated for 2 days. These cells were then incubated at 37°C for 1 h in HEPES-buffered Hank’s balanced salt solution (pH 7.4) containing 2.5 mM probenecid, 1% FBS, and 4 µM fluo-3 AM (Dojindo). Following this, the cells were washed four times with the solution without fluo-3 AM. Intracellular Ca^2+ concentrations were measured before and after adding samples using FLIPR (Molecular Devices). Assays were performed in the absence of bovine serum albumin (BSA). EC50, 95% confidence interval and Emax values for each curve were calculated by data analysis using 4-parameter logistic equation in Prism 5 software (GraphPad Software).

[2] = test system: FFAR1 R183A and R258A mutants; test: as above; type: cell-based
Method: as §1, §2

[3] = test system: FFAR1 H137A and L186A mutants; test: as above; type: cell-based; details: for change of EC50 in mutants versus wild-type: range over fasiglifam and GW9508 and both mutants
Method: as §1, §2

N-STZ-1.5 rats = test: Oral glucose tolerance test in diabetic N-STZ-1.5 rats; type: in vivo, rat
Method: Blood samples were collected from the tail vein before drug administration (pre), before glucose load (time 0), and 10, 30, 60, and 120 min after the glucose load. Plasma glucose and FFA levels were measured using Autoanalyzer 7080 (Hitachi, Japan), and insulin levels were measured using the Rat Insulin ELISA Kit (Morinaga, Japan). All procedures were conducted according to the Experimental Animal Care and Use Committee of Takeda Pharmaceutical Company Limited.

mFFAR1 = biological target: T1, mFFAR1 (Mus musculus, UniProt Q76JU9); test: Ca2+ mobilization assay (FLIPR) in CHO cells stably expressing mFFAR1; type: cell-based
T1 construct: expressed in transfected cells
T1 sequence (Q76JU9 whole entry): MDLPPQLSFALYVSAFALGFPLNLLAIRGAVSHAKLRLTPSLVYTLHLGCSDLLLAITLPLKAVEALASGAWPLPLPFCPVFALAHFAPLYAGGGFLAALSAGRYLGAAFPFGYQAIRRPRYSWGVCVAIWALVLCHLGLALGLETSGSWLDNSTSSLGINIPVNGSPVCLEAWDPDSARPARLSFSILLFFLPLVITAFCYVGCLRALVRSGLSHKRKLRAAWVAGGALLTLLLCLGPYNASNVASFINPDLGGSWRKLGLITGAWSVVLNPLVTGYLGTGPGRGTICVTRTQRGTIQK
Method: To establish CHO cells (dhfr−) stably expressing hFFAR1 or mFFAR1, CHO/dhfr− (ATCC catalog # CRL-9096) cells were transfected with hFFAR1-pAKKO-111H or mFFAR1-pAKKO-111H plasmid using Lipofectamine 2000 (Invitrogen). Cells were selected by culturing in nucleotide-free alpha-minimum essential medium (α-MEM; Invitrogen) supplemented with 10% dialyzed and heat-inactivated fetal bovine serum (FBS; Invitrogen), 100 IU/mL penicillin, and 100 µg/mL streptomycin (Invitrogen). HEK293T (ATCC catalog # CRL-11268) cells were cultured in Dulbecco’s modified Eagle’s medium (DMEM, Invitrogen) supplemented with 10% heat-inactivated FBS, 100 IU/mL penicillin, and 100 µg/mL streptomycin. The murine pancreatic β cell line MIN6 cells were kindly provided by Dr. Miyazaki. MIN6 cells were grown in DMEM containing 10% heat-inactivated FBS, 100 IU/mL penicillin, 100 µg/mL streptomycin, and 55 µmol/L 2-mercaptoethanol (Invitrogen). Cells were cultured in a humidified atmosphere containing 5% CO2/95% air at 37°C.
For stable CHO cell lines, cells were seeded in black-walled clear-bottomed 96-well cell culture plates (Costar) and incubated overnight in 5% CO2 at 37°C. […] Intracellular Ca^2+ concentrations were measured before and after adding samples using FLIPR (Molecular Devices). […]

[4] = test system: FFAR1-knockout mouse islets; test: Insulin secretion in FFAR1-knockout mouse islets; type: cell-based; details: 16 mM glucose
hFFAR1 [5] = biological target: T2, hFFAR1 (Homo sapiens, UniProt O14842); test: Ca2+ influx in HEK293T cells transiently transfected with varying amounts of hFFAR1 plasmid; type: cell-based; details: 100 ng to 1 ng hFFAR1 plasmid, compared with γ-LA
T2 construct: expressed in transfected cells
T2 sequence (O14842 whole entry): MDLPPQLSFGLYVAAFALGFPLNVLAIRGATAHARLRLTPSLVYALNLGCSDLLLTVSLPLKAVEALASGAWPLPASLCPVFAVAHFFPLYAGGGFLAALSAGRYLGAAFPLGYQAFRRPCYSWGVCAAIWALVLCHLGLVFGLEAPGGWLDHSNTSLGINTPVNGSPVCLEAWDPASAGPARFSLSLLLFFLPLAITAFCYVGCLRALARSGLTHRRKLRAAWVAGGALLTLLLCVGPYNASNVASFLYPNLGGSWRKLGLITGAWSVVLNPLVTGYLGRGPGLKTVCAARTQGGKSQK
Method: as §2
Supplementary file pone.0076280.s002.tif: Figure S2 Relative efficacy of fasiglifam is affected by FFAR1/GPR40 expression levels in transient HEK293T cells. Relative Ca^2+ influx activities of fasiglifam and γ-linolenic acid (γ-LA) were measured in HEK293T cells transiently transfected with 100 ng (A), 30 ng (B), 10 ng (C), 3 ng (D), and 1 ng (E) of hFFAR1 expression plasmids. Error bars indicate s.e.m. […]

wild-type mouse islets = test: Insulin secretion in wild-type mouse islets; type: cell-based; details: 16 mM glucose
hFFAR1 [6] = biological target: T2, hFFAR1; test: Ca2+ mobilization assay (FLIPR) in CHO cells stably expressing hFFAR1; type: cell-based; details: for agonistic activity, Ca2+ influx: hFFAR1/CHO cells (clone #104)
Method: Cells were selected by culturing in nucleotide-free alpha-minimum essential medium (α-MEM; Invitrogen) supplemented with 10% dialyzed and heat-inactivated fetal bovine serum (FBS; Invitrogen), 100 IU/mL penicillin, and 100 µg/mL streptomycin (Invitrogen). […] The murine pancreatic β cell line MIN6 cells were kindly provided by Dr. Miyazaki. […] Cells were cultured in a humidified atmosphere containing 5% CO2/95% air at 37°C.
as §2, with “(BSA).” for “(BSA). EC50, 95% confidence interval and Emax values for each curve were calculated by data analysis using 4-parameter logistic equation in Prism 5 software (GraphPad Software).”

rat insulinoma cells = test system: rat insulinoma cells; set-up: method as in PMID 21752941; details: prolonged exposure to fasiglifam alone; cited from earlier work
MIN6 cells [7] = test: Insulin secretion assay in MIN6 cells; type: cell-based, mouse; details: 16 mM glucose
Method: MIN6 cells were seeded at a density of 6 × 10^4 cells/well in 96-well plates (BD Falcon), and cells were cultured in the growth medium described above for 2 days before experiments. After discarding the medium, cells were preincubated for 2 h at 37°C with 200 µL of Krebs-Ringer bicarbonate–HEPES (KRBH) buffer (116 mmol/L NaCl, 4.7 mmol/L KCl, 1.17 mmol/L KH2PO4, 1.17 mmol/L MgSO4, 25 mmol/L NaHCO3, 2.52 mmol/L CaCl2, and 24 mmol/L HEPES) containing 0.2% BSA and 1 mmol/L glucose. After discarding the preincubation buffer, KRBH containing 0.2% BSA, 16 mmol/L glucose, and stimulators as shown was added and the plate was incubated for 2 h at 37°C. After incubation, supernatants from each well were collected and secreted insulin concentrations were measured using alphaLISA (PerkinElmer) according to the manufacturer’s instruction.

MIN6 cells [8] = test: Caspase 3/7 activity in MIN6 cells (lipotoxicity); details: 72-h exposure, palmitic acid 0.25–1 mM
Method: (§3) Caspase 3/7 activity in MIN6 cells was measured according to a previously described method (8). In brief, MIN6 cells were seeded at a density of 2 × 10^4 cells/well in a 96-well black clear plate (CORNING) and cultured overnight. After discarding the medium, 1% BSA, palmitic acid–BSA conjugate (0.25, 0.5, and 1 mM) or γ-LA–BSA conjugate (0.25, 0.5, and 1 mM) in combination with 0.1% DMSO or fasiglifam (0.1, 1, and 10 µM) were added to the plates and cultured for 72 h. After incubation, caspase 3/7 activity was measured using the Apo-one Homogeneous Caspase 3/7 assay (Promega) according to the manufacturers’ instructions. Fluorescent intensity was measured at excitation and emission wavelengths of 485 nm and 535 nm, respectively (Wallac 1420 ARVO SX Multilabel Counter; PerkinElmer).

MIN6 cells [9] = details: mouse, 72 h, 1 mM
Method: as §3

- change of EC50 in mutants versus wild-type [3]: 7.7- to 130 fold
SMILES: O=C(O)CCc1ccc(NCc2cccc(Oc3ccccc3)c2)cc1 [GW9508]
- effect of mutations on potency [1]: more drastic
- Ca2+ influx response of mutants [2]: almost completely unresponsive

SMILES: Cc1cnc(C(=O)O)c[n+]1[O-] [acipimox]
- plasma FFA levels (N-STZ-1.5 rats; acipimox 30 mg/kg oral, N-STZ-1.5 rats, OGTT): rapid decrease
- glucose tolerance (N-STZ-1.5 rats; acipimox alone 30 mg/kg, OGTT, N-STZ-1.5 rats): improved glucose tolerance
- plasma FFA level after reduction with acipimox (N-STZ-1.5 rats; diabetic rats, acipimox): approximately 0.2 mEq/L

SMILES: Cc1cc(OCCCS(C)(=O)=O)cc(C)c1-c1cccc(COc2ccc3c(c2)OC[C@H]3CC(=O)O)c1.Cc1cc(OCCCS(C)(=O)=O)cc(C)c1-c1cccc(COc2ccc3c(c2)OC[C@H]3CC(=O)O)c1.O [fasiglifam, [(3S)-6-({2′,6′-dimethyl-4′-[3-(methylsulfonyl)propoxy]biphenyl-3-yl}methoxy)-2,3-dihydro-1-benzofuran-3-yl] acetic acid hemihydrate]
- Emax, Ca2+ mobilization (mFFAR1): lower Emax than γ-LA
- insulinotropic effect in FFAR1-knockout islets [4]: completely abolished
- maximal response as amount of transfection plasmid decreased (hFFAR1 [5]): dramatically decreased
- effect of γ-LA on insulinotropic activity of fasiglifam (wild-type mouse islets): dramatic improvement
- agonistic activity, Ca2+ influx (hFFAR1 [6]): higher potency than FFAs
- effect of simultaneous γ-LA on fasiglifam Ca2+ activity (hFFAR1 [6]; hFFAR1/CHO clone #2, increasing doses of γ-LA): remarkable potentiation
- effect of mutations on potency [1]: more drastic
- Ca2+ influx response of mutants [2]: almost unresponsive
- change of EC50 in mutants versus wild-type [3]: 7.7- to 130 fold
- insulinotropic action in acipimox-treated rats (N-STZ-1.5 rats; fasiglifam 10 mg/kg + acipimox 30 mg/kg, OGTT): significantly suppressed
- plasma insulin (insulinotropic effect) versus vehicle (N-STZ-1.5 rats; fasiglifam alone 10 mg/kg oral, at 0, 10, and 30 min of OGTT): significant insulinotropic effects
- effect on apoptosis (rat insulinoma cells): no effect on apoptosis
- increase in the maximal response of fasiglifam (insulin secretion) by γ-LA (MIN6 cells [7]; γ-LA 100 µM): 1.5–2 fold

SMILES: CCC1=C(C)CN(C(=O)NCCc2ccc(S(=O)(=O)NC(=O)N[C@H]3CC[C@H](C)CC3)cc2)C1=O [glimepiride]
- insulinotropic effect in FFAR1-knockout islets [4]: not affected

SMILES: CCCCCCCCCCCCCC(=O)O [myristic acid]
- agonistic activity, Ca2+ influx (hFFAR1 [6]): partial activities

SMILES: CCCCCCCCCCCCCCCC(=O)O [palmitic acid]
- agonistic activity, Ca2+ influx (hFFAR1 [6]): partial activities
- caspase 3/7 activity (MIN6 cells [8]): increased caspase 3/7 activity in a dose-dependent manner

- agonistic activity, Ca2+ influx (hFFAR1 [6]): full agonistic activity
- EC50 (hFFAR1 [6]; hFFAR1/CHO clone #2, without fasiglifam, read-out: EC50 of γ-LA response (Ca2+ influx)): 5.39 µM
SMILES: CCCCC/C=C\C/C=C\C/C=C\CCCCC(=O)O [γ-LA, γ-linolenic acid]
- Ca2+ influx response of mutants [2]: relatively less affected
- activity in mutants versus wild-type [3]: remained almost unchanged
- caspase 3/7 activity (MIN6 cells [9]): significant enhancements of caspase 3/7 activity
- insulin secretion, compound alone (MIN6 cells [7]; 0.2% BSA): could not significantly potentiate insulin secretion

— PMC3794927, “A Novel Antidiabetic Drug, Fasiglifam/TAK-875, Acts as an Ago-Allosteric Modulator of FFAR1” (PLoS ONE, 2013)
